Test results reported in EP3995135B1, “PROLONGED RELEASE DOSAGE FORM OF […]-(+)- TARTARIC ACID SALT” (Grünenthal GmbH, priority 2020, dated 2022).
Where a name gives a salt, the structure may show the parent alone.

How the values were obtained:
[1] = Intrinsic dissolution (dissolution rate) of compressed salt samples in a Wood apparatus; type: physicochemical; settings: 37°C, 900 ml, 50 U/min
Protocol: 100 mg Tapentadol, entweder in Form des Hydrochloridsalzes oder des Salzes mit L-(+)-Weinsäure wurden mit einer Presskraft von 200 kg (gravitativ) bei einer Oberfläche von 0,5 cm^2 1 Minute verpresst. Die so erhaltenen verpressten Proben wurden in einem Wood-Apparat bei 37°C in 900 ml Auflösungsmedium bei verschiedenen pH-Werten und einer Paddeldrehgeschwindigkeit von 50 U/min auf ihre Auflösungsrate untersucht.

[2] = Thermodynamic solubility (saturation solubility, HPLC quantification as free base); type: physicochemical; settings: for Thermodynamische Löslichkeit, Assay ausgedrückt als Base: 24 h at 25°C; for pH Ende: pH of the solution at the end (24 h, 25°C); for pH Start: pH of the solution at the start
Protocol: Die thermodynamische Löslichkeit von Tapentadolhydrochlorid und des Salzes von Tapentadol mit L-(+)-Weinsäure wurde als Sättigungslöslichkeit in verschiedenen Medien bei verschiedenen pH-Werten bestimmt. Die Lösungen wurden 24 Stunden bei 25°C gerührt und die pH-Werte der Lösungen zu Beginn und am Ende der Experimente wurden gemessen. Die gelöste Menge an Tapentadol wurde durch HPLC quantifiziert (freie Base von Tapentadol). Die experimentellen Ergebnisse sind in der Tabelle unten zusammengestellt: […]

Structure (SMILES): CC[C@@H](c1cccc(O)c1)[C@@H](C)CN(C)C [Salz von Tapentadol mit L-(+)-Weinsäure, (-)-(1R,2R)-3-(3-Dimethylamino-1-ethyl-2-methylpropyl)phenol]
- intrinsische Auflösung (Auflösungsrate) ([1]; pH 1,0, 0 min): 0%
- intrinsische Auflösung (Auflösungsrate) ([1]; pH 1,0, 1 min): 19%
- intrinsische Auflösung (Auflösungsrate) ([1]; pH 1,0, 3 min): 51%
- intrinsische Auflösung (Auflösungsrate) ([1]; pH 1,0, 5 min): 77%
- intrinsische Auflösung (Auflösungsrate) ([1]; pH 4,5, 0 min): 0%
- intrinsische Auflösung (Auflösungsrate) ([1]; pH 4,5, 1 min): 20%
- intrinsische Auflösung (Auflösungsrate) ([1]; pH 4,5, 3 min): 51%
- intrinsische Auflösung (Auflösungsrate) ([1]; pH 4,5, 5 min): 77%
- intrinsische Auflösung (Auflösungsrate) ([1]; pH 6,8, 0 min): 0%
- intrinsische Auflösung (Auflösungsrate) ([1]; pH 6,8, 1 min): 19%
- intrinsische Auflösung (Auflösungsrate) ([1]; pH 6,8, 3 min): 44%
- intrinsische Auflösung (Auflösungsrate) ([1]; pH 6,8, 5 min): 67%
- intrinsische Auflösung (Auflösungsrate) ([1]; pH 7,4, 0 min): 0%
- intrinsische Auflösung (Auflösungsrate) ([1]; pH 7,4, 1 min): 18%
- intrinsische Auflösung (Auflösungsrate) ([1]; pH 7,4, 3 min): 44%
- intrinsische Auflösung (Auflösungsrate) ([1]; pH 7,4, 5 min): 65%
- Thermodynamische Löslichkeit, Assay ausgedrückt als Base ([2]; medium 0,1 M HCl): 26,7 g/100 ml
- Thermodynamische Löslichkeit, Assay ausgedrückt als Base ([2]; medium Acetat pH 4,5): 26,6 g/100 ml
- Thermodynamische Löslichkeit, Assay ausgedrückt als Base ([2]; medium Phosphat pH 7,4): 12,9 g/100 ml
- Thermodynamische Löslichkeit, Assay ausgedrückt als Base ([2]; medium SIF sp pH 6,8): 12,6 g/100 ml
- Thermodynamische Löslichkeit, Assay ausgedrückt als Base ([2]; medium Wasser): 26,4 g/100 ml
- pH Ende ([2]; medium 0,1 M HCl): 3,39
- pH Ende ([2]; medium Acetat pH 4,5): 3,53
- pH Ende ([2]; medium Phosphat pH 7,4): 3,56
- pH Ende ([2]; medium SIF sp pH 6,8): 3,55
- pH Ende ([2]; medium Wasser): 3,38
- pH Start ([2]; medium 0,1 M HCl): 1,15
- pH Start ([2]; medium Acetat pH 4,5): 4,51
- pH Start ([2]; medium Phosphat pH 7,4): 7,53
- pH Start ([2]; medium SIF sp pH 6,8): 6,83
- pH Start ([2]; medium Wasser): 6,19

Structure (SMILES): CC[C@@H](c1cccc(O)c1)[C@@H](C)CN(C)C [Tapentadolhydrochlorid, (-)-(1R,2R)-3-(3-Dimethylamino-1-ethyl-2-methylpropyl)phenol, reference compound]
- intrinsische Auflösung (Auflösungsrate) ([1]; pH 1,0, 0 min): 0%
- intrinsische Auflösung (Auflösungsrate) ([1]; pH 1,0, 1 min): 52%
- intrinsische Auflösung (Auflösungsrate) ([1]; pH 1,0, 3 min): 95%
- intrinsische Auflösung (Auflösungsrate) ([1]; pH 1,0, 5 min): 99%
- intrinsische Auflösung (Auflösungsrate) ([1]; pH 4,5, 0 min): 0%
- intrinsische Auflösung (Auflösungsrate) ([1]; pH 4,5, 1 min): 60%
- intrinsische Auflösung (Auflösungsrate) ([1]; pH 4,5, 3 min): 91%
- intrinsische Auflösung (Auflösungsrate) ([1]; pH 4,5, 5 min): 95%
- intrinsische Auflösung (Auflösungsrate) ([1]; pH 6,8, 0 min): 0%
- intrinsische Auflösung (Auflösungsrate) ([1]; pH 6,8, 1 min): 38%
- intrinsische Auflösung (Auflösungsrate) ([1]; pH 6,8, 3 min): 79%
- intrinsische Auflösung (Auflösungsrate) ([1]; pH 6,8, 5 min): 92%
- intrinsische Auflösung (Auflösungsrate) ([1]; pH 7,4, 0 min): 0%
- intrinsische Auflösung (Auflösungsrate) ([1]; pH 7,4, 1 min): 27%
- intrinsische Auflösung (Auflösungsrate) ([1]; pH 7,4, 3 min): 65%
- intrinsische Auflösung (Auflösungsrate) ([1]; pH 7,4, 5 min): 80%
- Thermodynamische Löslichkeit, Assay ausgedrückt als Base ([2]; medium 0,1 M HCl): 31,2 g/100 ml
- Thermodynamische Löslichkeit, Assay ausgedrückt als Base ([2]; medium Acetat pH 4,5): 32,7 g/100 ml
- Thermodynamische Löslichkeit, Assay ausgedrückt als Base ([2]; medium Citrat pH 7.4): 31,9 g/100 ml
- Thermodynamische Löslichkeit, Assay ausgedrückt als Base ([2]; medium SIF sp pH 6,8): 32,4 g/100 ml
- Thermodynamische Löslichkeit, Assay ausgedrückt als Base ([2]; medium Wasser): 33,0 g/100 ml
- pH Ende ([2]; medium 0,1 M HCl): 0,83
- pH Ende ([2]; medium Acetat pH 4,5): 4,29
- pH Ende ([2]; medium Citrat pH 7.4): 6,33
- pH Ende ([2]; medium SIF sp pH 6,8): 6,23
- pH Ende ([2]; medium Wasser): 4,63
- pH Start ([2]; medium 0,1 M HCl): 1,11
- pH Start ([2]; medium Acetat pH 4,5): 4,54
- pH Start ([2]; medium Citrat pH 7.4): 7,39
- pH Start ([2]; medium SIF sp pH 6,8): 6,82
